Assay results published in patent US4698332A, “Expectorant” (Mect Corporation, priority 1984, dated 1987).

Columns and labels:
[1] = test system: ciliated cells from human airway and frog palate; assay: Rotation of ciliated cell groups (Example 4); assay type: cell-based
Excerpt: Using ciliated cells from human airway and frog palate, rotation of cell groups due to ciliary beat was observed before and after application of N-acetylneuraminic acid and calcium salt of N-acetylneuraminic acid, in order to confirm the effect of these agents on the cilitated cells.
Human ciliated cells were collected from a normal trachea by means of a branchoscope, the ciliated cells being separated by rubbing the bronchus while observing through the branchoscope, while the collection of frog cilitated cells was conducted by rubbing the palatine mucosta, without being specially careful. […] The groups of cells were transferred to a cover slip and one drop of chicken plasma (prepared by Difco Company) and one drop of 50% chicken embryo extract were added to the cells, thus forming clots. The rotary motion in the clots was recorded by means of a video recorder and the number of rotations per minute was measured.

[2] = test system: palatine mucosa of frog; assay: Ciliary movement of frog palatine mucosa, particle transport method (Example 3, Tables 1-3); assay type: cell-based, bull frog
Procedure: Bull frogs (furnished by Saitama Test Animal) weighing 300 to 450 g were used regardless of sex.
N-acetylneuraminic acid and calcium salt of N-acetylneuraminic acid (provided by Kanto Ishiseiyaku Kabushiki Kaisha), as well as acetylcholine chloride (furnished by Sigma Kabushiki Kaisha) were used as the test substances.
Mucociliary transport was measured by the particle transport method. After decapitation of a frog, the surface of the palatine mucosa was separated with minimized damage and of fixed to a cork plate in a Petri dish which was then filled with 20 ml of Ringer's solution (trishydrochloric acid). The palatine mucosa was left in this state for 30 minutes before the commencement of measurement. For measurement, the Ringer's solution was removed and fine pieces of cork (capable of passing pharmaceutical sieve No. 5 but not capable of passing No. 6) were placed on the surface of the palatine mucosa, and the time (in seconds) required for the cork piece to move 1 cm was measured. The duration of movement, i.e., moving speed, was measured also in the state immediately after the removal of the Ringer's solution or pharmaceutical solution.

[3] = Acute toxicity test of N-acetylneuraminic acid, mice (Example 6); set-up: species or system ICR mice; settings: mouse, in vivo
Procedure: (§1) A test was conducted to examine the acute toxicity of N-acetylneuraminic acid, using mice and rats, by means of intravenous injection, subcutaneous injection, per os inhalation.
(§2) 13 to 15% (W/V) dissolved in distilled water
(§3) By Litchfield-Wilcoxon method.

[4] = test system: sputum of patients with chronic obstructive lung disease on frog palatine mucosa; assay: Mucociliary transport rate (MTR) of treated sputum on frog palatine mucosa (Example 5); set-up: species or system human sputum; frog palatine mucosa; settings: for MTR after treatment: 2 mg
Procedure: (§4) Mucociliary transport rate (hereinunder referred to as MTR), i.e. the rate of transport of sputum by cilia, was measured using frog palatine mucosa. At the same time, physicochemical properties of the sputum before and after application of N-acetylneuraminic acid were compared.
(§5) The sputum used as the specimens was collected from 12 samples of patients suffering from chronic obstructive lung disease. N-acetylneuraminic acid was added to the specimen sputum in the ratios of 5 mg/ml sputum and 1 mg/ml sputum, and the specimen was left for 1 hour at 4° C. before measurement. Sputum which has not been treated by N-acetylneuraminic acid was used as a comparison example. A palatine mucosa obtained from a decapitated frog head was kept at constant temperature and humidity until the mucus liquid of the frog itself depleted. The specimen sputum was placed on the dried palatine mucosa, and the speed of movement of the sputum was observed through a noumenal microscope, thus measuring the MTR. The pH value of the sputum was measured by means of an electronic model HM-SAp pH meter, while the spinnability was measured by a device developed by Nagaoka and Yamanaka (disclosed in Transactions of 2nd Symposium of Cough and sputum, published July 20, 1979). The yield value was measured by Dulfano's double-tube method which is shown in the American Review of Respiratory Diseases, Vol. 104, p88, 1971.

[5] = Acute toxicity test of N-acetylneuraminic acid, rats (Example 6); assay type: in vivo, SD rats; settings: rat, in vivo
Procedure: as §1
(§6) SD rats: 6 weeks old (7 weeks old in case of inhalation)
as §2, §3
(§7) Inhalation was conducted by 1hr exposure to mist.

[6] = test system: rats; assay: as above; assay type: in vivo, SD rats; settings: inhalation, 1hr exposure to mist
Procedure: as §1, §6, §2, §3, §7

[7] = Physicochemical properties (pH, yield value, spinnability) of treated sputum (Example 5); set-up: species or system human; settings: for Yield value after treatment / pH of sputum after treatment / Spinnability after treatment: 2 mg
Procedure: as §4, §5

[8] = sample 5 (viscous sputum, 2 ml), before 18

Compound: CC(=O)N[C@H]1[C@H]([C@H](O)[C@H](O)CO)OC(O)(C(=O)O)C[C@@H]1O (stereo partly shown) [N-acetylneuraminic acid]
- Increase of rotation speed (revolutions per minute) over Medium 199 at plateau ([1]; 10^-3 to 10^-2 mg/ml, 5, 10 and 15 minutes after application): about 25%
- Effect on rotary motion of the cilium cells ([1]; 10^-4 to 10^-1 mg/ml): gradually accelerated starting immediately after the application
- Movement ([2]; 10^-4 g/ml, frog number 1): 17.3 s/cm
- Movement ([2]; 10^-4 g/ml, frog number 2): 22.0 s/cm
- Movement ([2]; 10^-4 g/ml, frog number 3): 20.7 s/cm
- Movement ([2]; 10^-4 g/ml, frog number 4): 22.0 s/cm
- Movement ([2]; 10^-5 g/ml, frog number 1): 21.3 s/cm
- Acceleration ([2]; 10^-5 g/ml, frog number 1, control = 0): 33.4%
- Movement ([2]; 10^-5 g/ml, frog number 2): 27.3 s/cm
- Acceleration ([2]; 10^-5 g/ml, frog number 2, control = 0): 16.5%
- Movement ([2]; 10^-5 g/ml, frog number 3): 28.7 s/cm
- Acceleration ([2]; 10^-5 g/ml, frog number 3, control = 0): 28.2%
- Movement ([2]; 10^-5 g/ml, frog number 4): 24.7 s/cm
- activation at 10 µg/mL ([2]; 10^-5 g/ml, frog number 4, control = 0, read-out: Acceleration): 31.4%
- Effect on ciliary movement of palatine mucosa ([2]; Tables 1 and 3): acceleration of the ciliary movement of palatine mucosa in a certain dose-dependency
- Ciliary movement promoting effect compared with acetylcholine ([2]; acetylcholine control at 10^-5 and 10^-4): substantially the same ciliary movement promoting effect as the acetylcholine
- LD50 at 336 h ([3]; iv, mice F, 95% 2137-2925): 2500 mg/kg
- LD50 at 336 h ([3]; iv, mice M, 95% 1441-2008): 1700 mg/kg
- LD50 at 336 h ([3]; po, per os, mice F): > 5000 mg/kg
- LD50 at 336 h ([3]; po, per os, mice M): > 5000 mg/kg
- LD50 at 336 h ([3]; sc, subcutaneous, mice F): > 5000 mg/kg
- LD50 at 336 h ([3]; sc, subcutaneous, mice M): > 5000 mg/kg
- Change of MTR of sputum ([4]; 1 mg/ml, samples with reduced spinnability): tendency to increased MTR
- MTR after treatment ([4]; sample 1 (viscous sputum, 2 ml), before 19): 38 mm/min
- MTR after treatment ([4]; sample 2 (viscous sputum, 2 ml), before 8): 19 mm/min
- MTR after treatment ([4]; sample 3 (pus sputum, 2 ml), before 20): 27 mm/min
- MTR after treatment ([4]; sample 4 (viscous sputum, 2 ml), before 25): 29 mm/min
- MTR after treatment [4, 8]: 30 mm/min
- MTR after treatment ([4]; sample 6 (viscous sputum, 2 ml), before 15): 18 mm/min
- LD50 at 336 h ([5]; iv, rats F, 95% 1741-2030): 1880 mg/kg
- LD50 at 336 h ([5]; iv, rats M, 95% 1748-2001): 1870 mg/kg
- LD50 at 336 h ([5]; po, per os, rats F): > 5000 mg/kg
- LD50 at 336 h ([5]; po, per os, rats M): > 5000 mg/kg
- LD50 at 336 h ([5]; sc, subcutaneous, rats F): > 5000 mg/kg
- LD50 at 336 h ([5]; sc, subcutaneous, rats M): > 5000 mg/kg
- LD50 ([6]; rats F): > 4.33 g/m^3
- LD50 ([6]; rats M): > 4.33 g/m^3
- Change of spinnability of sputum ([7]; 1 mg/ml): five samples showed a reduction, while one sample showed a slight increase
- Change of yield value of sputum ([7]; 1 mg/ml): Increase in the yield value was observed in three samples, while three samples showed a reduction. The yield value was unchanged in the remaining one sample
- Change of sputum pH value ([7]; 1 mg/ml, six samples): five out of six samples treated with 1 mg/ml of N-acetylneuraminic acid showed a reduction in pH value (pH 7.31 0.40), while the remaining one sample showed a slight increase in pH value
- Yield value after treatment ([7]; sample 1 (viscous sputum, 2 ml), before 3.7): 11.5 mmH2 O
- pH of sputum after treatment ([7]; sample 1 (viscous sputum, 2 ml), before 7.72): 7.35
- Spinnability after treatment ([7]; sample 1 (viscous sputum, 2 ml), before 55): 19 mm
- Yield value after treatment ([7]; sample 2 (viscous sputum, 2 ml), before 0.1): 0.1 mmH2 O
- pH of sputum after treatment ([7]; sample 2 (viscous sputum, 2 ml), before 7.52): 7.62
- Spinnability after treatment ([7]; sample 2 (viscous sputum, 2 ml), before 10): 3 mm
- Yield value after treatment ([7]; sample 3 (pus sputum, 2 ml), before 2.7): 0.7 mmH2 O
- Spinnability after treatment ([7]; sample 3 (pus sputum, 2 ml), before 5): 2 mm
- pH of sputum after treatment ([7]; sample 3 (pus sputum, 2 ml), before 7.98): 7.20
- Yield value after treatment ([7]; sample 4 (viscous sputum, 2 ml), before 1.9): 3.2 mmH2 O
- pH of sputum after treatment ([7]; sample 4 (viscous sputum, 2 ml), before 6.98): 6.84
- Spinnability after treatment ([7]; sample 4 (viscous sputum, 2 ml), before 22): 12 mm
- Yield value after treatment ([7]; sample 5 (viscous sputum, 2 ml), before 2.2): 3.1 mmH2 O
- pH of sputum after treatment ([7]; sample 5 (viscous sputum, 2 ml), before 7.24): 6.94
- Spinnability after treatment [7, 8]: 16 mm
- pH of sputum after treatment ([7]; sample 6 (viscous sputum, 2 ml), before 8.16): 7.88
- Yield value after treatment ([7]; sample 6 (viscous sputum, 2 ml), before 14.3): 7.5 mmH2 O
- Spinnability after treatment ([7]; sample 6 (viscous sputum, 2 ml), before 22): 26 mm
